Consider 1 compound from ChEMBL document CHEMBL3526061, “Glucuronidation of edaravone by human liver and kidney microsomes: biphasic kinetics and identification of UGT1A9 as the major UDP-glucuronosyltransferase isoform” (Drug Metab Dispos, 2012).

Format in all cases: ADME
Series [1] is described as follows: Drug metabolism in human kidney microsomes assessed as drug glucuronidation in presence of […] naloxone by LC-MS/MS method.
For series [2], the system named is Liver microsome. The experiment in a line: Drug metabolism in human liver microsomes assessed as drug glucuronidation in presence of 50 estradiol by LC-MS/MS method.
Series [3] in a line: Drug metabolism in human kidney microsomes assessed as drug glucuronidation per mg tissue in presence of BSA by LC-MS/MS method.
The target of series [4] is T1, UDP-glucuronosyltransferase 1A7 (Homo sapiens, UniProt Q9HAW7).
T1 sequence (Q9HAW7 whole entry): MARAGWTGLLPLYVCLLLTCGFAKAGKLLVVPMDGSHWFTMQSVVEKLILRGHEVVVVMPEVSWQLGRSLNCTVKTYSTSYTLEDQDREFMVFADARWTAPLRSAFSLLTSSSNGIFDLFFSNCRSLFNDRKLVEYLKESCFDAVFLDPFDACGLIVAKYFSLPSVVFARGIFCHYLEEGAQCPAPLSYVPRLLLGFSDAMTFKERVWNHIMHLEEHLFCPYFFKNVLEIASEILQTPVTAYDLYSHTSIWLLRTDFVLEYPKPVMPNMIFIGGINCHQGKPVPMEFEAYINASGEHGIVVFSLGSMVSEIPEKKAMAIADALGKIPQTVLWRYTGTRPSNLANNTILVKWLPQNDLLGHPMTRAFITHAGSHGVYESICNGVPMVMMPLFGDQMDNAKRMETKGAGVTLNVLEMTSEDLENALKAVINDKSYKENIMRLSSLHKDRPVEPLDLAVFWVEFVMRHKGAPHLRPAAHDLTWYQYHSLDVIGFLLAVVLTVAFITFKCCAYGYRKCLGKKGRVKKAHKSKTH
As to the kind of experiment: Activity of human recombinant UGT1A7 expressed in insect cells assessed as intrinsic clearance for enzyme mediated glucuronidation per mg protein by LC-MS/MS method.

Series [5] has as its target T2, UDP-glucuronosyltransferase 2B17 (Homo sapiens, UniProt O75795).
T2 sequence (O75795 whole entry): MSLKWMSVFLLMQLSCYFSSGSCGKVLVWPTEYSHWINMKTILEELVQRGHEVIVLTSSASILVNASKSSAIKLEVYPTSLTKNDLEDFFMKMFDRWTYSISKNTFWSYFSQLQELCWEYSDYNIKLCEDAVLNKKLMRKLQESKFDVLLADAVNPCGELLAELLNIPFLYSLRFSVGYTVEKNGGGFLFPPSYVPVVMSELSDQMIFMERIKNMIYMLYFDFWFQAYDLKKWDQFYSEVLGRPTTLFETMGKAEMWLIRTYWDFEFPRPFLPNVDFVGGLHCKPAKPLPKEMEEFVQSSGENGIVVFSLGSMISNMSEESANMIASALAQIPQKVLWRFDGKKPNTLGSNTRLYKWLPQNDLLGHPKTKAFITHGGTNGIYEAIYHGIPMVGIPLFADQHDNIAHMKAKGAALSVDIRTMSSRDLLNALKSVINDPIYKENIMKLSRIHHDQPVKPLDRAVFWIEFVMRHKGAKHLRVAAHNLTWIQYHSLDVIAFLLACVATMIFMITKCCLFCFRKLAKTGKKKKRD
As to the kind of experiment: Activity of human recombinant UGT2B17 expressed in insect cells assessed as intrinsic clearance for enzyme mediated glucuronidation per mg protein by LC-MS/MS method.

The subject of series [6] is Liver microsome. As to the kind of experiment: Drug metabolism in human liver microsomes assessed as drug glucuronidation in presence of […] naloxone by LC-MS/MS method. On the technique in general: Microsomes from liver hold many membrane-bound enzymes, among them those of drug oxidation.
The target of series [7] is T3, UDP-glucuronosyltransferase 1A3 (Homo sapiens, UniProt P35503).
T3 sequence (P35503 whole entry): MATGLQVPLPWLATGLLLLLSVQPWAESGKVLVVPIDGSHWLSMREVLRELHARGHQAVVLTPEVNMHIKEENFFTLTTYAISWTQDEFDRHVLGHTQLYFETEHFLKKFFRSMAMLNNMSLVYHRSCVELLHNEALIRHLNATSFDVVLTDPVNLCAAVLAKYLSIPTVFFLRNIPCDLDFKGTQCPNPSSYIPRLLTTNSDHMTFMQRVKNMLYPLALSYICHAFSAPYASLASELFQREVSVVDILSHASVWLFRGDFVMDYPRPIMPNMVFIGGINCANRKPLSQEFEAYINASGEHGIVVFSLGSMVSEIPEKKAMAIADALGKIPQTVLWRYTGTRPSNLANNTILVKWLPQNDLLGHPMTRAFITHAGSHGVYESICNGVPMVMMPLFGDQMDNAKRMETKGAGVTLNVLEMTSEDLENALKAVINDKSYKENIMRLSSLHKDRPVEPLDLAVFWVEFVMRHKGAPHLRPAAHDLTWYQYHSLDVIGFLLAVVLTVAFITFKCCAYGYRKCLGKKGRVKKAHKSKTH
The experiment in a line: Activity of human recombinant UGT1A3 expressed in insect cells assessed as enzyme mediated glucuronidation at 500 uM by LC-MS/MS method.

The target of series [8] is T1, UDP-glucuronosyltransferase 1A7. The experiment in a line: Activity of human recombinant UGT1A7 expressed in insect cells assessed as enzyme mediated glucuronidation at 12.5 uM by LC-MS/MS method.
The target of series [9] is T4, UDP-glucuronosyltransferase 1A6 (Homo sapiens, UniProt P19224).
T4 sequence (P19224 whole entry): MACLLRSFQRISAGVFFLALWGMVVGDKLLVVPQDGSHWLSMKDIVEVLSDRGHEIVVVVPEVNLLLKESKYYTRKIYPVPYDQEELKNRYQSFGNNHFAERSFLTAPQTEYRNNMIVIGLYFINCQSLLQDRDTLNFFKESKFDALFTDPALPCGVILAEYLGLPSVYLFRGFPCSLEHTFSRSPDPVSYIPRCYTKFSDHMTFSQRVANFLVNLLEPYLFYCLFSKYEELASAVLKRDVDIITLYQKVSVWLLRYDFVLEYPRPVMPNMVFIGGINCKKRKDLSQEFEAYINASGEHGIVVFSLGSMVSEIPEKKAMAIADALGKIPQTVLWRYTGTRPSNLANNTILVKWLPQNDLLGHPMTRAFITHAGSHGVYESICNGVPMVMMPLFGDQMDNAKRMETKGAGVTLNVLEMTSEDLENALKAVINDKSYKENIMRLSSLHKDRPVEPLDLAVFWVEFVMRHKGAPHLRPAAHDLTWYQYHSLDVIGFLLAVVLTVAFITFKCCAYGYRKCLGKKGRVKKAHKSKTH
As to the kind of experiment: Activity of human recombinant UGT1A6 expressed in insect cells assessed as enzyme mediated glucuronidation at 12.5 uM by LC-MS/MS method.

The nature of series [10]: Drug metabolism in human kidney microsomes assessed as intrinsic clearance for drug glucuronidation per mg tissue in presence of BSA by LC-MS/MS method.

As for `CC1=NN(c2ccccc2)C(=O)C1` [EDARAVONE], the Drug metabolism result in [1] is recorded as “metabolite_detected”; in the series with Liver microsome [2] it was “metabolite_not_detected”; in the series on Liver microsome [6], “metabolite_detected”; in series [7] it was “metabolite_detected”; in series [8], “metabolite_detected”; in series [9], “metabolite_detected”. Also, the VmaxH in series [3] is on record as 696 pmol/min/g. Also, in series [3], the VmaxL stood at 5265 pmol/min/g. In addition, the CL turned out to be 1.7 µL/min/g in series [4] and 3.3 µL/min/g in [5]. Further, the CL(high) in [10] was 78.5 µL/min/mg. Besides, the CL(low) in series [10] came out at 3.6 µL/min/mg.
